Laboratory results published in patent US9951043B2, “Therapeutic compounds” (Gilead Sciences, Inc., priority 2013, dated 2018).
Read-outs that look alike come from different tables or passages of the source.

How the values were obtained:
HIV-IIIb = assay: Test A: Antiviral Assay in MT4 Cells; type: cell-based, HIV-1; settings: for inhibition at 0.2 µM / inhibition at 2 µM: Human immunodeficiency virus 1, IIIB, comparison with previously published compounds (WO 2013/006738); for inhibition at 0.2 µM: MT4, read-out: Response at 0.2 μM (percent inhibition of virus-induced cell killing), 0.2 μM; for inhibition at 2 µM: MT4, read-out: Response at 2 μM (percent inhibition of virus-induced cell killing), 2 μM; for % inhibition at 0.2 μM (percent inhibition of virus-induced cell killing): 0.2 μM drug concentration; for % inhibition at 0.2 μM (percent inhibition of virus-induced cell killing) / % inhibition at 2 μM (percent inhibition of virus-induced cell killing): MT-4 cells infected with HIV-IIIb, 5 days, calculated from the dose response curve, values above 100 normalized to 100%; for % inhibition at 2 μM (percent inhibition of virus-induced cell killing): 2 μM drug concentration
Protocol: Test A: Antiviral Assay in MT4 Cells
(§1) MT-4 cells were next mixed with HIV-IIIb at an m.o.i of 0.003 for 1 hour, after which time 35 μL of virus/cell mixture (2000 cells) was immediately added to each well containing 40 μL of diluted compound. The plates were then incubated at 37° C. for 5 days. […] Cell lysis was carried out by incubating at room temperature for 10 min and then chemiluminescence was read.
The data above represent an average over time of each assay for each compound. […] Thus, the data reported in the tables include the data reported in the priority document, as well as data from assays run in the intervening period.

uninfected MT-4 cells = assay: Test B: Cytotoxicity Assay; type: cell-based
Protocol: as §1
Test B: Cytotoxicity Assay
Compound cytotoxicity and the corresponding CC50 values was determined using the same protocol as described in the antiviral assay (Test A) except that uninfected cells were used.

[1] = uninfected MT-4 cells, same protocol as Test A, 5 days, read-out: CC50

Compound | inhibition at 0.2 µM (HIV-IIIb) | inhibition at 2 µM (HIV-IIIb) | CC50 (uninfected MT-4 cells) | % inhibition at 0.2 μM (percent inhibition of virus-induced cell killing) (HIV-IIIb) | % inhibition at 2 μM (percent inhibition of virus-induced cell killing) (HIV-IIIb) | CC50 (uninfected MT-4 cells; [1])
NC(=O)c1cc(-c2ccc(-c3ccc(F)c(C(N)=O)c3)c([C@H](Cc3cc(F)cc(F)c3)NC(=O)Cn3nc(C(F)F)c4c3C(F)(F)CCC4(F)F)n2)ccc1F | 3% | 58% |  |  |  | 
CC(C)(O)C#Cc1ccc(-c2ccc(F)c(C(N)=O)c2)c([C@H](Cc2cc(F)cc(F)c2)NC(=O)Cn2nc(C(F)(F)F)c3c2C(F)(F)[C@@H]2C[C@H]32)n1 | 96% | 90% |  |  |  | 
Cn1nc(N)c2c(Cl)ccc(-c3ccc(C#CC(C)(C)O)nc3[C@H](Cc3cc(F)cc(F)c3)NC(=O)Cn3nc(C(F)(F)F)c4c3C(F)(F)[C@@H]3C[C@H]43)c21 [Compound 55C] |  |  | 9.56 µM | 92% | 92% | 
Cn1nc(NS(C)(=O)=O)c2c(Cl)ccc(-c3ccc(C#CC(C)(C)O)nc3[C@H](Cc3cccc(F)c3)NC(=O)Cn3nc(C(F)(F)F)c4c3C(F)(F)[C@@H]3C[C@H]43)c21 [Compound 187G, N—((S)-1-(3-(4-chloro-1-methyl-3-(methylsulfonamido)-1H-indazol-7-yl)-6-(3-hydroxy-3-methylbut-1-yn-1-yl)pyridin-2-yl)-2-(3-fluorophenyl)ethyl)-2-((3b,4aR)-5,5-difluoro-3-(trifluoromethyl)-3b,4,4a,5-tetrahydro-1H-cyclopropa[3,4]cyclopenta[1,2-c]pyrazol-1-yl)acetamide] |  |  | 19.8 µM | 84% | 84% | 
Cn1nc(NS(C)(=O)=O)c2c(Cl)ccc(-c3ccc(C#CC(C)(C)O)nc3[C@H](Cc3cc(F)cc(F)c3)NC(=O)Cn3nc(C4(O)CC4)c4c3CCCC4)c21 [Compound 156E, (S)—N-(1-(3-(4-chloro-1-methyl-3-(methylsulfonamido)-1H-indazol-7-yl)-6-(3-hydroxy-3-methylbut-1-yn-1-yl)pyridin-2-yl)-2-(3,5-difluorophenyl)ethyl)-2-(3-(1-hydroxvcyclopropyl)-4,5,6,7-tetrahydro-1H-indazol-1-yl)acetamide] |  |  | 25.6 µM | 78% | 78% | 
Cn1nc(NS(C)(=O)=O)c2c(Cl)ccc(-c3ccc(C#CC(C)(C)N)nc3[C@H](Cc3cc(F)cc(F)c3)NC(=O)Cn3nc(C(F)F)c4c3C(F)(F)[C@@H]3C[C@H]43)c21 [Compound 127, N—((S)-1-(6-(3-amino-3-methylbut-1-yn-1-yl)-3-(4-chloro-1-methyl-3-(methylsulfonamido)-1H-indazol-7-yl)pyridin-2-yl)-2-(3,5-difluorophenyl)ethyl)-2-((3bS,4aR)-3-(difluoromethyl)-5,5-difluoro-3b,4,4a,5-tetrahydro-1H-cyclopropa[3,4]cyclopenta[1,2-c]pyrazol-1-yl)acetamide] |  |  |  |  |  | 8.76 µM
Cc1nc(NS(C)(=O)=O)c2cccc(-c3ccc(C#CC(C)(C)O)nc3[C@H](Cc3cc(F)cc(F)c3)NC(=O)Cn3nc(C(F)F)c4c3C(F)(F)[C@@H]3C[C@H]43)n12 [Compound 120H, 2-((3bS,4aR)-3-(difluoromethyl)-5,5-difluoro-3b,4,4a,5-tetrahydro-1H-cyclopropa[3,4]cyclopenta[1,2-c]pyrazol-1-yl)-N—((S)-2-(3,5-difluorophenyl)-1-(6-(3-hydroxy-3-methylbut-1-yn-1-yl)-3-(3-methyl-1-(methylsulfonamido)imidazo[1,5-a]pyridin-5-yl)pyridin-2-yl)ethyl)acetamide] |  |  |  |  |  | 11.7 µM
Cn1nc(NS(C)(=O)=O)c2c(Cl)ccc(-c3ccc(C#CC(C)(C)O)nc3[C@H](Cc3cc(F)cc(F)c3)NC(=O)Cn3nc(Cl)c4c3C(F)(F)[C@@H]3C[C@H]43)c21 [Compound 149, N—((S)-1-(3-(4-chloro-1-methyl-3-(methylsulfonamido)-1H-indazol-7-yl)-6-(3-hydroxy-3-methylbut-1-yn-1-yl)pyridin-2-yl)-2-(3,5-difluorophenyl)ethyl)-2-((3bS,4aR)-3-chloro-5,5-difluoro-3b,4,4a,5-tetrahydro-1H-cyclopropa[3,4]cyclopenta[1,2-c]pyrazol-1-yl)acetamide] |  |  |  |  |  | 26.7 µM
C#Cc1ccc(-c2ccc(Cl)c3cnn(C)c23)c([C@H](Cc2cc(F)cc(F)c2)NC(=O)Cn2nc(C(F)F)c3c2C(F)(F)[C@@H]2C[C@H]32)n1 [Compound 136D, N—((S)-1-(3-(4-chloro-1-methyl-1H-indazol-7-yl)-6-ethynylpyridin-2-yl)-2-(3,5-difluorophenyl)ethyl)-2-((3bS,4aR)-3-(difluoromethyl)-55-difluoro-3b,4,4a,5-tetrahydro-1H-cyclopropa[3,4]cyclopenta[1,2-c]pyrazol-1-yl)acetamide] |  |  | 7.43 µM |  |  | 
COc1ccc(-c2ccc(C#CC(C)(C)O)nc2[C@H](Cc2cc(F)cc(F)c2)NC(=O)Cn2nc(C(F)F)c3c2C(F)(F)[C@@H]2C[C@H]32)c2c1c(N)nn2C [Compound 114G] |  |  | 14.8 µM | 100% | 100% | 
Cn1nc(NS(C)(=O)=O)c2c(Cl)ccc(-c3ccc(C#CC(C)(C)N)nc3[C@H](Cc3cc(F)cc(F)c3)NC(=O)Cn3nc(C(F)F)c4c3C(F)(F)[C@@H]3C[C@H]43)c21 [Compound 128B, N—((S)-1-(6-(3-amino-3-methylbut-1-yn-1-yl)-3-(4-chloro-1-methyl-3-(methylsulfonamido)-1H-indazol-7-yl)pyridin-2-yl)-2-(3,5-difluorophenyl)ethyl)-2-((3bS,4aR)-3-(difluoromethyl)-5,5-difluoro-3b,4,4a,5-tetrahydro-1H-cyclopropa[3,4]cyclopenta[1,2-c]pyrazol-1-yl)acetamide] |  |  |  | 93% | 94% | 4.18 µM
CC(C)(O)C#Cc1ccc(-c2cccc3c2CNC3=O)c([C@H](Cc2cc(F)cc(F)c2)NC(=O)Cn2nc(C(F)(F)F)c3c2C(F)(F)[C@@H]2C[C@H]32)n1 [Compound 15, 2-((3bS,4aR)-5,5-difluoro-3-(trifluoromethyl)-3b,4,4a,5-tetrahydro-1H-cyclopropa[3,4]cyclopenta[1,2-c]pyrazol-1-yl)-N—((S)-2-(3,5-difluorophenyl)-1-(6-(3-hydroxy-3-methylbut-1-yn-1-yl)-3-(1-oxoisoindolin-4-yl)pyridin-2-yl)ethyl)acetamide] |  |  |  | 93% | 94% | 10.3 µM
CC(C)(O)C#Cc1ccc(-c2ccc3nnc(N)n3c2)c([C@H](Cc2cc(F)cc(F)c2)NC(=O)Cn2nc(C(F)F)c3c2C(F)(F)[C@@H]2C[C@H]32)n1 [Compound 105E] |  |  | 31.5 µM |  | 74% | 
Cn1nc(N)c2c(C#N)ccc(-c3ccc(C#CC(C)(C)O)nc3[C@H](Cc3cc(F)cc(F)c3)NC(=O)Cn3nc(C(F)F)c4c3C(F)(F)[C@@H]3C[C@H]43)c21 [Compound 77E] |  |  | 11.8 µM | 96% | 97% | 
Cn1nc(NS(C)(=O)=O)c2c(Cl)ccc(-c3ccc(C#CC(C)(C)O)nc3[C@H](Cc3cc(F)cc(F)c3)NC(=O)Cn3ncc4c3C(F)(F)[C@@H]3C[C@H]43)c21 [Compound 150, N—((S)-1-(3-(4-chloro-1-methyl-3-(methylsulfonamido)-1H-indazol-7-yl)-6-(3-hydroxy-3-methylbut-1-yn-1-yl)pyridin-2-yl)-2-(3,5-difluorophenyl)ethyl)-2-((3bS,4aR)-5,5-difluoro-3b,4,4a,5-tetrahydro-1H-cyclopropa[3,4]cyclopenta[1,2-c]pyrazol-1-yl)acetamide] |  |  |  |  |  | 28.9 µM
N—((S)-1-(3-(3-chloro-1H-benzofuro[3,2-c]pyrazol-5-yl)-6-(3-hydroxy-3-methylbut-1-yn-1-yl)pyridin-2-yl)-2-(3,5-difluorophenyl)-2-((3bS,4aR)-5,5-difluoro-3-(trifluoromethyl)-3b,4,4a,5-tetrahydro-1H-cyclopropa[3,4]cyclopenta[1,2-c]pyrazol-1-yl)acetamide [Compound 113D] |  |  | 1.09 µM |  | 97% | 
CC(C)(O)C#Cc1ccc(-c2ccc(F)c(C(N)=O)c2)c([C@H](Cc2cc(F)cc(F)c2)NC(=O)Cn2nc(C(F)F)c3c2C(F)(F)CCC3(F)F)n1 | 71% | 84% |  |  |  | 
Cn1nc(NS(C)(=O)=O)c2c(Cl)ccc(-c3ccc(C#CC(C)(C)O)nc3[C@H](Cc3cc(F)cc(F)c3)NC(=O)Cn3nc(N)c4c3C(F)(F)[C@@H]3C[C@H]43)c21 [Compound 148B, 2-((3bS,4aR)-3-amino-5,5-difluoro-3b,4,4a,5-tetrahydro-H-cyclopropa[3,4]cyclopenta[1,2-c]pyrazol-1-yl)-N—((S)-1-(3-(4-chloro-1-methyl-3-(methylsulfonamido)-1H-indazol-7-yl)-6-(3-hydroxy-3-methylbut-1-yn-1-yl)pyridin-2-yl)-2-(3,5-difluorophenyl)ethyl)acetamide] |  |  | 23.3 µM | 83% | 83% | 
Cn1nc(NS(=O)(=O)C(F)(F)F)c2c(Cl)ccc(-c3ccc(C#CC(C)(C)O)nc3[C@H](Cc3cc(F)cc(F)c3)NC(=O)Cn3nc(C(F)F)c4c3C(F)(F)[C@@H]3C[C@H]43)c21 [Compound 171D] |  |  | > 42.5 µM |  |  | 
